In PMC7661526, “Antibiofilm effects of N,O-acetals derived from 2-amino-1,4-naphthoquinone are associated with downregulation of important global virulence regulators in methicillin-resistant Staphylococcus aureus” (Scientific Reports, 2020):
≈ marks a conversion by molar mass, not a printed value. Where “and” joins values, the source holds several entries; their conditions need not be identical. Identical values can stand only once. Like-named read-outs stand apart in the source and are kept apart here.

Key:
mecA = assay: Real-time RT-qPCR of biofilm-associated genes; type: cell-based, Staphylococcus aureus
spa = assay: Real-time RT-qPCR of biofilm-associated genes; type: cell-based, Staphylococcus aureus
[1] = tested on: MRSA ST239-SCCmecIII (BMB9393); assay: Disk diffusion test; type: cell-based, Staphylococcus aureus
S. aureus ATCC 25923 [2] = assay: Disk diffusion test; type: cell-based, Staphylococcus aureus
Description: (§1) Strain representatives of six globally spread clones/lineages of MRSA were used in this study to test the antimicrobial activity of the N,O-acetal derivatives against MRSA: NY/Japan-USA100/ST5-SCCmecII (strain CR15-071), USA300/ST8-SCCmecIV (strain USA300-0114), USA400/ST1-SCCmecIV (strain USA400-0051), Brazilian epidemic clone-BEC/ST239-SCCmecIII (strain BMB9393), pediatric clone-USA800/ST5-SCCmecIV (strain USA800-0179), and OSPC-USA1100/ST30-SCCmecIV (strain 07-040). The S. aureus ATCC 25923 was used as a control for the experiment of drug susceptibility. […] For biofilm production, tryptic soy broth (TSB; BD, Franklin Lakes, NJ, USA) was supplemented with 1% (w/v) glucose (TSB-Glu). Tryptic soy agar (TSA; BD) was used for bacterial growth. The Mueller-Hinton broth (MHB; BD) and Mueller-Hinton agar (MHA; BD) was used for susceptibility tests. All strains were maintained in 10% (v/v) glycerol stocks and stored at − 80 °C.
(§2) The antibacterial activity of 6a and its derivatives 7a, 7b, and 7c was tested as previously described using paper disks impregnated with each compound[13]. The derivatives were also analyzed quantitatively using microdilution assays in 96-well inert polystyrene microtiter plates (Nuclon; Nalge Nunc International, Rochester, NY, USA) to determine the minimal inhibitory concentration (MIC)[14]. Biological control, as well as growth conditions, were performed following CLSI recommendation[15],[16]. […] Controls were also performed using 2% (v/v) DMSO only.

[3] = tested on: MRSA (ST1-SCCmecIV) (USA400); assay: Disk diffusion test; type: cell-based, Staphylococcus aureus
psmα3 = assay: Real-time RT-qPCR of biofilm-associated genes; type: cell-based, Staphylococcus aureus
[4] = tested on: MRSA strain BMB9393 biofilm; assay: Biofilm development on polystyrene, crystal violet; type: cell-based, Staphylococcus aureus; conditions: 1/4MIC (7b 32 µg/mL, 7c 16 µg/mL); strain BMB9393, 24 h, crystal violet
Method: Biofilms were formed on polystyrene surfaces using the BEC representative, strain BMB9393. […] The same volume of the bacterial culture in TSB-Glu (37 °C/18 h; at 250 rpm) diluted 1/100 in the same broth was added to the wells. After incubation (37 °C/24 h), supernatants were gently removed, rinsed with distilled water, and treated with crystal violet solution as described. […] Eight independent tests with three replicates each were performed. Controls were inoculated with the same bacterial inoculum but using only TSB-Glu with 2% (v/v) DMSO, final concentration.

rnaIII = assay: Real-time RT-qPCR of global regulators; type: cell-based, Staphylococcus aureus
[5] = tested on: MRSA ST8-SCCmecIV (USA300); assay: Disk diffusion test; type: cell-based, Staphylococcus aureus
MRSA BEC (BMB9393) = assay: microbe, parasite or virus in culture; type: cell-based, Staphylococcus aureus
Method: (§3) For biofilm production, tryptic soy broth (TSB; BD, Franklin Lakes, NJ, USA) was supplemented with 1% (w/v) glucose (TSB-Glu). Tryptic soy agar (TSA; BD) was used for bacterial growth. The Mueller-Hinton broth (MHB; BD) and Mueller-Hinton agar (MHA; BD) was used for susceptibility tests. All strains were maintained in 10% (v/v) glycerol stocks and stored at − 80 °C.
as §2, with “The” for “The antibacterial activity of 6a and its derivatives 7a, 7b, and 7c was tested as previously described using paper disks impregnated with each compound[13]. The”

[6] = tested on: MRSA ST5-SCCmecII (USA100); assay: Disk diffusion test; type: cell-based, Staphylococcus aureus
[7] = tested on: MRSA ST30-SCCmecIV (USA1100); assay: Disk diffusion test; type: cell-based, Staphylococcus aureus
sarA = assay: Real-time RT-qPCR of global regulators; type: cell-based, Staphylococcus aureus
[8] = tested on: MRSA strain BMB9393 biofilm; assay: Confocal laser scanning microscopy (CLSM) of biofilm; type: cell-based, Staphylococcus aureus; conditions: 1/4MIC (7b 32 µg/mL, 7c 16 µg/mL); SYTO 9; compared with untreated biofilms
Method: For CLSM experiments, after 24 h of incubation, the supernatant containing planktonic cells was gently removed, and biofilm treated with 25 nM SYTO 9 DNA-intercalating stain (Invitrogen; Carlsbad, CA, EUA), as previously described. Before visualization, SYTO 9 solution was removed and the material visualized using a confocal laser scanning microscope (Model LSM510 Carl Zeiss Meditec; Jena, Germany). The microscope was configured with the argon laser (458 nm/477 nm/488 nm/514 nm). The images were randomly captured with the […]. Controls were performed using 2% (v/v) DMSO only (final concentration). Three independent experiments were performed in quadruplicate.

S. aureus ATCC 25923 [9] = assay: MIC, broth microdilution; type: cell-based, Staphylococcus aureus
Description: as §1, §2

[10] = tested on: MRSA USA400 (USA400-0051); assay: MIC, broth microdilution; type: cell-based, Staphylococcus aureus
Method: as §3
as §2, with “The” for “The antibacterial activity of 6a and its derivatives 7a, 7b, and 7c was tested as previously described using paper disks impregnated with each compound[13]. The”

[11] = tested on: MRSA OSPC-USA1100 (07-040); assay: MIC, broth microdilution; type: cell-based, Staphylococcus aureus
Method: as §3
as §2, with “The” for “The antibacterial activity of 6a and its derivatives 7a, 7b, and 7c was tested as previously described using paper disks impregnated with each compound[13]. The”

[12] = tested on: MRSA NY/Japan-USA100 (CR15-071); assay: MIC, broth microdilution; type: cell-based, Staphylococcus aureus
Method: as §3
as §2, with “The” for “The antibacterial activity of 6a and its derivatives 7a, 7b, and 7c was tested as previously described using paper disks impregnated with each compound[13]. The”

[13] = tested on: MRSA USA300 (USA300-0114); assay: MIC, broth microdilution; type: cell-based, Staphylococcus aureus
Method: as §3
as §2, with “The” for “The antibacterial activity of 6a and its derivatives 7a, 7b, and 7c was tested as previously described using paper disks impregnated with each compound[13]. The”

[14] = tested on: MRSA Pediatric-USA800 (USA800-0179); assay: MIC, broth microdilution; type: cell-based, Staphylococcus aureus
Method: as §3
as §2, with “The” for “The antibacterial activity of 6a and its derivatives 7a, 7b, and 7c was tested as previously described using paper disks impregnated with each compound[13]. The”

[15] = Table 2, used for SI, strain not given, values of 6a-7c equal those for BEC (BMB9393)

Row | Compound | mecA expression (mecA) | Reduction of spa expression (spa) [%] | Inhibition zone [1] [mm] | Inhibition zone (S. aureus ATCC 25923 [2]) [mm] | Inhibition zone [3] [mm] | Reduction of psmα3 expression (psmα3) [%] | Reduction of accumulated biofilm matrix [4] | Reduction of RNAIII transcripts (rnaIII) [%] | Reduction of hla expression (hla) [%] | Inhibition zone [5] [mm] | MIC (MRSA BEC (BMB9393); [15]) [µg/mL] | Inhibition zone [6] [mm] | Inhibition zone [7] [mm] | Reduction of sarA gene expression (sarA) | Biofilm accumulation by CLSM [8] | other results
1 | CCOCNC1=CC(=O)c2ccccc2C1=O [7b, 2-(ethoxymethyl)-amino-1,4-naphthoquinone] | not significantly affected | 95.4 ± 0.9 | 10±1.0 | 12.5±3.5 | 13±1.0 | 97.75 ± 0.6 | 87.4% ± 1.9% and 88% | 88.0 ± 1.1 | 90.0 ± 0.6 | 12±2.0 | 128 (≈ 554 µM) | 13±2.0 | 13±1.0 | 65.5 ± 6.0% | decrease biofilm accumulation massively | MIC (MRSA BEC (BMB9393); Staphylococcus aureus, MRSA): 128 µg/mL (≈ 554 µM); MIC (S. aureus ATCC 25923 [9]; Staphylococcus aureus, ATCC25923, control strain S. aureus ATCC 25923, read-out: MIC): 64 µg/mL (≈ 277 µM); MIC ([10]; Staphylococcus aureus): 128 µg/mL (≈ 554 µM); MIC ([11]; Staphylococcus aureus, MRSA): 256 µg/mL (≈ 1110 µM); MIC ([12]; Staphylococcus aureus): 128 µg/mL (≈ 554 µM); MIC ([13]; Staphylococcus aureus): 64 µg/mL (≈ 277 µM); MIC ([14]; Staphylococcus aureus): 256 µg/mL (≈ 1110 µM)
2 | C#CCOCNC1=CC(=O)c2ccccc2C1=O [7c, 2-(propynyloxymethyl)-amino-1,4-naphthoquinone] | not significantly affected | 74.82 ± 4.9 | 13±1.0 | 14±3.4 | 11±0.8 | 87.73 ± 4.3 | 75.6% ± 3.7% and 75% | 70.6 ± 2.2 | 86.5 ± 1.0 | 13±1.3 | 64 (≈ 265 µM) | 12±1.5 | 15±0.8 | no important effect | decrease biofilm accumulation massively | MIC (MRSA BEC (BMB9393); broth microdilution, BEC (BMB9393)): 64 µg/mL (≈ 265 µM); MIC (S. aureus ATCC 25923 [9]; control strain S. aureus ATCC 25923): 16 µg/mL (≈ 66.3 µM); MIC ([10]; broth microdilution, USA400 (USA400-0051)): 64 µg/mL (≈ 265 µM); MIC ([11]; broth microdilution, OSPC-USA1100 (07-040)): 128 µg/mL (≈ 531 µM); MIC ([12]; broth microdilution, NY/Japan-USA100 (CR15-071)): 128 µg/mL (≈ 531 µM); MIC ([13]; broth microdilution, USA300 (USA300-0114)): 64 µg/mL (≈ 265 µM); MIC ([14]; broth microdilution, Pediatric-USA800 (USA800-0179)): 64 µg/mL (≈ 265 µM)
